Source: patent US20210283087A1, “METHOD FOR TREATING AND RELIEVING MYOPIA” (China Medical University, priority 2014, published 2021)

Tests used:
[1] = tested on: monocular form deprivation (MFD) Syrian hamster; experiment: Refractive power in monocular form deprivation (MFD) hamster model, streak retinoscope; assay type: in vivo, golden Syrian hamsters; conditions: for Myopia in the non-MFD eye: LPS and PGN but not PBS treatment; for Refractive power, BL: left eye before MFD / Refractive power, BR: right eye before MFD: LPS or PGN group, baseline; for Refractive error FR-BR / Refractive error FL-BL: LPS or PGN; for Refractive error FR-BR: MFD right eye; for Refractive error FL-BL: non-MFD left eye
Procedure: In this study, a total of 160 golden Syrian hamsters aged 3 weeks, weighing 80 to 90 g, and 20 albino guinea pigs, aged 2 to 3 weeks, were used for experiments. All animals were kept in a 12-hour light/dark cycle. All procedures were approved by the Institutional Animal Care and Use Committee of China Medical University and were conducted in accordance with the guidelines of the Use of Animals in Ophthalmic and Vision Research. Hamsters were raised with a right eyelid fusion for 21 days. Myopia was induced in the guinea pigs by covering the right eye with a cloth attached to the skin at a distance of at least 1 cm from the eye. MFD was induced in the right eye (with the left eye serving as a control) of animals randomly assigned to treatment or control groups (n=10 animals each) receiving daily applications of drug or phosphate-buffered saline (PBS), respectively, to both eyes.
(§1) The RE (i.e., spherical-component RE, which is defined as the mean RE in horizontal and vertical meridians) was measured using a hand-held streak retinoscope. Animals were anesthetized with 10% ether in O2. Ocular refraction was evaluated at the start and end of the experiment. At the end of the study, animals were sacrificed through CO2 asphyxiation according to the guidelines of the Public Health Service, Office of Laboratory Animal Welfare, National Institutes of Health, and American Association of Veterinary Medicine. Eyes were enucleated using a razor blade on an ice plate under a surgical microscope (Topcon, Tokyo, Japan) by cutting perpendicularly to the anterior-posterior axis approximately 1 mm posterior to the ora serrata. The iris and ciliary body of the anterior segment of the eye were separated. Posterior sclera was excised using a 7-mm-diameter trephine. The axial lengths were determined through A-scan ultrasonography (PacScan 300 Plus, NY, USA). The average of 10 unique measurements was used.

[2] = tested on: Syrian hamster; experiment: Refractive power of hamsters without MFD after LPS or PGN; assay type: in vivo; conditions: for Refractive power, BL: left eye before treatment / Refractive power, BR: right eye before treatment: LPS or PGN group, baseline; for Refractive power, FL: left eye after treatment / Refractive power, FR: right eye after treatment / Refractive error FL-BL / Refractive error FR-BR: LPS or PGN; for Refractive power, FL: left eye after treatment / Refractive power, FR: right eye after treatment: 21 days; for Refractive error FL-BL: left eye; for Refractive error FR-BR: right eye
Procedure: as §1
To further test this possibility, LPS and PGN were applied to the eyes of hamsters without MFD.

[3] = tested on: monocular form deprivation (MFD) Syrian hamster; experiment: Refractive power in monocular form deprivation (MFD) hamster model, streak retinoscope; assay type: in vivo, golden Syrian hamsters; conditions: LPS or 500 ng/mL PGN every second day for 21 days
[4] = tested on: sclera and retina of hamster eyes; experiment: Immunohistochemistry of hamster eyes (sclera, retina); assay type: in vivo; conditions: for c-Fos and NF-κB expression / MMP2 and TGF-β expression / TGF-β and MMP2 expression: LPS or PGN; for IL-10 and TNF-α levels: LPS or PGN treatment; for MMP2 and TGF-β expression: MFD hamsters; for TGF-β and MMP2 expression: hamsters without MFD
Procedure: (§2) Antigen retrieval was performed by boiling the slides in citrate buffer (pH 6.0); the sections were then stained with antibodies against IL-6, TNF-α, TGF-β, MMP2, c-Fos, NF-κB, and CHRM1 and 3. The EnVision System peroxidase kit (DAKO, Carpentaria, Calif., USA) was used to visualize immunoreactivity.

[5] = tested on: Sclera fibroblast; experiment: Gene expression by real-time PCR in LPS-treated primary scleral fibroblasts; assay type: cell-based, hamster; conditions: sclera fibroblast; 100 ng/ml LPS for 4 hours
Procedure: (§3) R28 rat retinal epithelial cells were provided by Gail Seigel at the Ross Eye Institute (SUNY, Buffalo, N.Y., USA). The cells were cultured in Dulbecco's modified Eagle's medium (DMEM) with 10% fetal bovine serum (FBS) at 37° C. and 5% CO2, with medium replacement every 3 days to 4 days. Sclera were placed in a 60-mm culture dish in DMEM supplemented with 10% FBS to isolate primary scleral fibroblasts; those from fewer than three passages were used in experiments. […] Cell lysates were collected for quantitative (q)PCR to determine gene expression levels.
(§4) Total RNA was extracted using the RNeasy MiniKit (Qiagen, Valencia, Calif., USA), and 5 μg of RNA was reverse-transcribed to cDNA by using the Superscript First Strand Synthesis system (Invitrogen, Carlsbad, Calif., USA). Primers and probes used for qPCR were selected from the Universal Probes Library (Roche, West Sussex, UK). Transcript levels were normalized to those of glyceraldehyde 3-phosphate dehydrogenase in each sample.

[6] = tested on: Retinal cell (R28); experiment: Gene expression by real-time PCR in LPS-treated R28 retinal cells; assay type: cell-based, rat; conditions: R28; 100 ng/ml LPS for 4 hours
Procedure: as §3, §4

[7] = tested on: MMP2; experiment: Gelatin zymography of MMP2 activity in LPS-activated scleral fibroblasts and ARPE-19 cells; assay type: cell-based; conditions: LPS + 100 μM atropine or LPS + 50 μM diacerein; 48 hours
Procedure: To facilitate subsequent analysis, 1×10^6 cells were seeded in 24-well plates for at least 12 hours. […] To measure the MMP-2/MMP-9 activities, samples were separated using 8% SDS-PAGE containing 0.1% gelatin.

[8] = tested on: LEWIS rats, right eye induced myopia by FDM; experiment: Refractive error and axial length in FDM myopia LEWIS rats (diclofenac); assay type: in vivo
Procedure: Four weeks LEWIS rats were used in this example. […] The refractive error and axial length of right eye were measured by refractometer within three weeks and recorded in Table 14.

[9] = tested on: MFD-induced myopia in hamster; experiment: Effect of resveratrol on MFD-induced myopia in hamster (refractometer); assay type: in vivo; conditions: for Diopter, left eye (mean ± SD) / Diopter, right myopic eye (mean ± SD): 21 days
Procedure: 0.1141 g resveratrol (purchased from Sigma Aldrich Co.) powder was dissolved in 6 ml of ethanol to obtain resveratrol liquid. 1.46 g β-cyclodextrin (purchased from Sigma Aldrich Co.) was dissolved in 2 ml of sterile water to obtain a β-cyclodextrin solution (as a co-solvent); resveratrol liquid and β cyclodextrin were mixed in mole number of 1:2 by slowly adding dropwise β cyclodextrin solution into resveratrol liquid to form a mixture. The mixture was frozen drained, and then 5 ml artificial tears were added (purchased from Alcon company) to be re-dissolved to obtain 100 mM resveratrol solution. Resveratrol solution can be diluted by fetal bovine serum medium or artificial tears for various embodiments.
The refractive powers of hamsters were measured before experiment by refractometer (in China Medical University Hospital Department of Ophthalmology). The hamsters were administered artificial tears (referred to as control group) or various concentrations (3 mM, 30 mM, 100 mM) of resveratrol (experimental group) for five hamsters each group. The right eyes of the hamsters of each group were stitched; after 21 days, the stitches were all removed and then the refractive powers of each hamster were measured.

[10] = tested on: Human retinal pigment epithelium; experiment: Western blot of phosphorylated Akt and ERK after LPS in human retinal pigment epithelium; assay type: cell-based; conditions: 50 μM resveratrol pretreatment, then 500 ng/ml LPS
Procedure: Human retinal pigment epithelium was administrated 500 ng/ml LPS for 30 minutes to observe the expression of Akt and ERK.

[11] = tested on: monocyte chemoattractant protein-1 (MCP-1); experiment: LPS-induced MCP-1 expression in human retinal pigment epithelial cells; assay type: cell-based; conditions: 50 μM resveratrol and 1 μg/ml LPS for 24 hours
Procedure: Human retinal pigment epithelial cells were as model cells under LPS stimulation for 24 hours to induce inflammation and monocyte chemoattractant protein-1 (MCP-1), and then resveratrol was administered to detect the effect of suppressing inflammatory response.

[12] = tested on: sclera and retina of hamster eyes; experiment: Immunohistochemical analysis of COL1, TGF-β, TNF-α in resveratrol-treated hamster eyes; assay type: in vivo; conditions: 100 mM resveratrol
Procedure: as §2, with “[…] Antigen” for “Antigen”

[13] = 3 × diclofenac (3 mg/ml solution), right eye, three weeks, mean ± standard error

Compound: peptidoglycan [PGN]
- Myopia in the non-MFD eye [1]: induced
- Refractive power, BL: left eye before MFD [1]: 11.73 ± 0.25 D
- Refractive power, BR: right eye before MFD [1]: 11.48 ± 0.49 D
- Refractive error FR-BR [1]: −4.90 ± 0.83 D
- Refractive error FL-BL [1]: −5.03 ± 0.43 D
- Refractive power, BL: left eye before treatment [2]: 12.22 ± 0.35 D
- Refractive power, BR: right eye before treatment [2]: 12.17 ± 1.04 D
- Refractive power, FL: left eye after treatment [2]: 8.67±0.63 D
- Refractive power, FR: right eye after treatment [2]: 9.14±1.21 D
- Refractive error FL-BL [2]: −3.55 ± 0.35 D
- Refractive error FR-BR [2]: −3.03 ± 1.04 D
- Refractive power, FL: left eye after MFD [3]: 6.78±0.63 D
- Refractive power, FR: right eye after MFD (occluded eye) [3]: 6.47±0.39 D
- c-Fos and NF-κB expression [4]: stimulated
- IL-10 and TNF-α levels [4]: increased
- MMP2 and TGF-β expression [4]: upregulation
- TGF-β and MMP2 expression [4]: upregulation

Compound: lipopolysaccharide [LPS]
- Myopia in the non-MFD eye [1]: induced
- Refractive power, BL: left eye before MFD [1]: 11.92 ± 0.56 D
- Refractive power, BR: right eye before MFD [1]: 12.30 ± 0.48 D
- Refractive error FR-BR [1]: −5.9 ± 0.54 D
- Refractive error FL-BL [1]: −4.13 ± 0.9 D
- Refractive power, BL: left eye before treatment [2]: 12.28 ± 0.97 D
- Refractive power, BR: right eye before treatment [2]: 12.25 ± 0.57 D
- Refractive power, FL: left eye after treatment [2]: 8.33±0.96 D
- Refractive power, FR: right eye after treatment [2]: 8.56±0.42 D
- Refractive error FL-BL [2]: −3.95 ± 0.97 D
- Refractive error FR-BR [2]: −3.69 ± 0.57 D
- Chrm 1 gene expression level [5]: 1.49 ± 0.18
- Chrm 2 gene expression level [5]: 1.48 ± 0.17
- Chrm 3 gene expression level [5]: 1.58 ± 0.15
- Chrm 4 gene expression level [5]: 1.07 ± 0.23
- Chrm5 gene expression level [5]: 0.93 ± 0.15
- Fos gene expression level [5]: 1.00 ± 0.11
- IL1b gene expression level [5]: 2.84 ± 0.21
- IL10 gene expression level [5]: 0.56 ± 0.19
- IL-6 gene expression level [5]: 3.02 ± 0.16
- MMP2 gene expression level [5]: 1.79 ± 0.17
- NFkB gene expression level [5]: 4.50 ± 0.27
- Tgfb1 gene expression level [5]: 2.15 ± 0.23
- Tnfa gene expression level [5]: 1.49 ± 0.15
- Refractive power, FL: left eye after MFD [3]: 7.79±0.88 D
- Refractive power, FR: right eye after MFD (occluded eye) [3]: 6.44±0.18 D
- c-Fos and NF-κB expression [4]: stimulated
- IL-10 and TNF-α levels [4]: increased
- MMP2 and TGF-β expression [4]: upregulation
- TGF-β and MMP2 expression [4]: upregulation
- Chrm 1 gene expression level [6]: 1.39 ± 0.13
- Chrm 2 gene expression level [6]: 0.45 ± 0.23
- Chrm 3 gene expression level [6]: 1.27 ± 0.2
- Chrm 4 gene expression level [6]: 0.94 ± 0.15
- Chrm5 gene expression level [6]: 0.75 ± 0.21
- Fos gene expression level [6]: 1.39 ± 0.11
- IL1b gene expression level [6]: 4.3 ± 0.25
- IL10 gene expression level [6]: 0.56 ± 0.19
- IL-6 gene expression level [6]: 2.63 ± 0.15
- MMP2 gene expression level [6]: 1.32 ± 0.13
- NFkB gene expression level [6]: 1.13 ± 0.11
- Tgfb1 gene expression level [6]: 1.18 ± 0.12
- Tnfa gene expression level [6]: 1.56 ± 0.17

Compound: CC(=O)Oc1cccc2c1C(=O)c1c(OC(C)=O)cc(C(=O)O)cc1C2=O [diacerein]
- MMP2 activities in cells activated by LPS [7]: decreased

Compound: O=C(O)Cc1ccccc1Nc1c(Cl)cccc1Cl [diclofenac]
- Inhibitory effect on myopia, comparison of concentrations ([8]; 3 mg/ml vs 6 mg/ml): better in the concentration of 3 mg/ml than in 6 mg/ml
- Δ Axial length [8, 13]: 1.04 ± 0.39 mm
- Δ Refractive error [8, 13]: 5.36 ± 4.05 D
- Δ Axial length ([8]; 6 × diclofenac (6 mg/ml solution), right eye, three weeks, mean ± standard error): 1.24 ± 0.55 mm
- Effect on myopia process ([8]; diclofenac solution 3 mg/ml and 6 mg/ml): significant inhibitory effect

Compound: Oc1ccc(C=Cc2cc(O)cc(O)c2)cc1 [resveratrol]
- Diopter, left eye (mean ± SD) ([9]; 3 mM resveratrol): −0.17 ± 0.24 Diopter
- Diopter, right myopic eye (mean ± SD) ([9]; 3 mM resveratrol): −2.42 ± 1.30 Diopter
- Diopter, left eye (mean ± SD) ([9]; 30 mM resveratrol): −0.63 ± 0.41 Diopter
- Diopter, right myopic eye (mean ± SD) ([9]; 30 mM resveratrol): −2.46 ± 0.65 Diopter
- Diopter, left eye (mean ± SD) ([9]; 100 mM resveratrol): −0.25 ± 1.53 Diopter
- Diopter, right myopic eye (mean ± SD) ([9]; 100 mM resveratrol): −1.13 ± 1.47 Diopter
- Inhibition of myopia, comparison of concentrations ([9]; 100 mM vs 3 mM and 30 mM): most effective
- Expression of phosphorylated Akt and ERK [10]: decrease
- Expression of MCP-1 [11]: decreasing
- TNF-α expression in the retina [12]: follows the same trend as TGF-β
- Collagen I protein expression in the sclera ([12]; stitched right eye): recovered
- TGF-β expression in the retina ([12]; stitched right eye): reduction effect
